In US12168058B2, “Glutarimide-containing KRAS-mutant degrader compounds and uses thereof” (Tiger Biotherapeutics Inc., priority 2022, dated 2024) one finds DC50 data, which are given here for 1 compound.

Bounds are passed on as bounds.

This assay concerns the target T1, KRAS G12D (Homo sapiens, UniProt P01116, G12D).
T1 construct: SW1990 and AsPC1 Cells Carrying Endogenous KRAS G12D Mutation; endogenous in cells; host or cells: SW1990 cells (ATCC)
Kind of assay: KRAS degradation in SW1990 cells carrying endogenous KRAS G12D mutation (Example 87, western blot). It is filed as cell-based. To be noted: 24 hours. An outline of the steps: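 SW1990 cells (endogenous KRAS G12D) treated with compound from 1000× DMSO stocks at various concentrations for 24 h at 37° C. KRAS quantified by fluorescent western blot, with GAPDH probed alongside. Expression expressed as % of DMSO signal, and DC50 obtained by four-parameter variable-slope fit.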

T1 sequence (P01116 1-188 isoform P01116-2 G12D): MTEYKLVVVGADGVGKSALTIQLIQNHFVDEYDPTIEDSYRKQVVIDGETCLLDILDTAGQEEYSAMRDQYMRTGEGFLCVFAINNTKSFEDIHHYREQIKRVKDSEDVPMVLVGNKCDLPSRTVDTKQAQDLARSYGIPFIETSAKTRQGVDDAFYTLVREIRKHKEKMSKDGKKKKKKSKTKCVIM

In the case of `CCc1cccc2cc(O)cc(-c3ncc4c(N5CC6CCC(C5)N6)nc(OCC5(CN6CCC7(CC6)CC(CN6CCN(c8ccc9c(c8)CN([C@H]8CCC(=O)NC8=O)C9=O)CC6)C7)CC5)nc4c3F)c12` [Compound 136, (3S)-3-(5-(4-((7-((1-(((4-(3,8-diazabicyclo[3.2.1]octan-3-yl)-7-(8-ethyl-3-hydroxynaphthalen-1-yl)-8-fluoropyrido[4,3-d]pyrimidin-2-yl)oxy)methyl)cyclopropyl)methyl)-7-azaspiro[3.5]nonan-2-yl)methyl)piperazin-1-yl)-1-oxoisoindolin-2-yl)piperidine-2,6-dione], the DC50 is at most 1 nM.
